This note sets out measurements from patent publication US7709475B2, “Selective inhibitors against Cdk4 and Cdk6 having aminothiazole skeleton” (Banyu Pharmaceutical Co., Ltd., priority 2004, dated 2010).

The test system of one experiment is JURKAT. Nature of the experiment: Inhibitory action against cell proliferation (WST-8), JURKAT. It counts as cell-based. Conditions: Homo sapiens, 72 h, Jurkat cells, 3 days culture, read-out: concentration for 50% inhibition of cell proliferation (IC50), Jurkat. The protocol: Clinically isolated cancer cell lines EOL-1, KU812 and JURKAT were cultured in RPMI1640 medium containing 10% fetal calf serum at 37° C. in the presence of 5% CO2 under an atmosphere of saturated steam.
The inhibitory action against cell proliferation was measured by modifying the method of Skehan et al. [J. Natl. Cancer Inst., Vo. 82, 1107-1112 (1990)] according to the method of Ishiyama et al. [Talanta, Vol. 44, 1299 (1997)]. 100 μL each of cell culture medium containing 1×10^3 live cells of EOL-1, KU812 and JURKAT, respectively, was dispensed into each well of a 96-well cell culture dish, and the cells were cultured overnight. On the next day, a dilution series of solutions in DMSO was prepared from a DMSO solution of the compound of each Example. Then, the dilution series of solutions or DMSO only as a control for no drug addition were separately added to the medium for cell culture. Finally, 100 μL each of the culture medium containing either the dilution series of solutions of the compounds or DMSO only, was added to the cells which had been cultured in a 96-well dish, and then the cells were further cultured for 3 days.
After adding 20 μL each of WST-8 (Kishida Chemical Co., Ltd.) to each well and culturing the cells for another 2 hours, the optical densities at 450 nm were measured against a reference wavelength of 650 nm, and were compared with the control group. The results obtained by determining the concentrations for 50% inhibition of cell proliferation (IC50 (nM)) of the compounds of Examples are presented in the following Table 4.
For orientation: Tetrazolium dyes change colour on reduction, which living cells bring about.

For another experiment, the target named is T1, cyclin T1-Cdk9 (Homo sapiens, UniProt P50750).
T1 construct: made in house; host or cells: insect cell Sf9 (baculovirus)
Nature of the experiment: Cdk9 inhibitory action: cyclin T1-Cdk9 kinase activity. It is filed as biochemical. The note with it: cyclin T1-Cdk9, 50 μM ATP. The source says: The cDNA of Cdk9, and the cDNA of a fusion protein of cyclin T1, an activating factor of Cdk9, and glutathione S-transferase, were integrated into a baculovirus expression vector to prepare a recombinant baculovirus. This was co-transfected into insect cell Sf9 to express an active complex of the cyclin T1/glutathione S-transferase fusion protein-Cdk9 at a high level. The cells were recovered and solubilized, and the active complex was adsorbed onto Glutathione Sepharose, and then was purified by elution with 10 mM reductive glutathione. The solution containing the eluted active complex was dialyzed against B buffer (composition: 20 mM Tris-hydrochloric acid buffer (pH 7.4)/200 mM sodium chloride/0.1% Tween-20/10 mM 2-mercaptoethanol/1 mM dithiothreitol/10% glycerol) to remove the reductive glutathione.
For the measurement of the activity of cyclin T1-Cdk9, a synthetic peptide ([…] was used as the substrate.
(§1) The reaction was performed by partially modifying the method of Kitagawa et al. [Oncogene, Vol. 7, 1067-1074 (1992)]. The volume of the reaction solution was 21.1 μL, and to the R buffer, purified cyclin T1-Cdk9, 25 μM of the substrate peptide, 50 μM of non-labeled adenosine triphosphate (ATP), and 0.5 μCi of [γ-33P]-labeled ATP (2000 to 4000 Ci/mmole) were added to react at 30° C. for 20 minutes. Then, 10 μL of 350 mM phosphate buffer was added to the reaction system to terminate the reaction. The substrate peptide was adsorbed onto P81 paper filter on a 96-well plate, and then washed several times with 75 mM phosphate buffer. The radioactivity of the substrate peptide was measured with a liquid scintillation counter.
Addition of the compound according to the invention to the reaction system was carried out by first preparing a dilution series of solutions of the compound in dimethylsulfoxide (DMSO), and adding […] of the dilutions. A control was provided by adding 1.1 μL of DMSO to the reaction system.
A representative compound of the compounds according to the invention was selected, and the IC50 value (nM) of this compound for the cyclin T1-Cdk9 activity was determined.

Another experiment addresses T2, cyclin H-Cdk7 (Homo sapiens, UniProt P50613).
T2 construct: made in house; host or cells: insect cell Sf9 (baculovirus)
Nature of the experiment: Cdk7 inhibitory action: cyclin H-Cdk7 kinase activity. The note with it: cyclin H-Cdk7, 50 μM ATP. It counts as biochemical.
Text: The cDNA of Cdk7, and the cDNA of a fusion protein of cyclin H, an activating factor of Cdk7, and glutathione S-transferase, were integrated into a baculovirus expression vector to prepare a recombinant baculovirus. This was co-transfected into insect cell Sf9 to express an active complex of the cyclin H/glutathione S-transferase fusion protein-Cdk7 at a high level. The cells were recovered and solubilized, then the active complex was adsorbed onto Glutathione Sepharose, and a cyclin H-Cdk7 active complex was recovered using Precision Protease.
For the measurement of the activity of cyclin H-Cdk7, a synthetic peptide ([…] was used as the substrate.
as §1, with “cyclin H-Cdk7,” for “cyclin T1-Cdk9,”, “and 1” for “and 0.5”, “for 45” for “for 20”
Addition of the compound according to the invention to the reaction system was carried out by first preparing a dilution series of solutions of the compound in dimethylsulfoxide (DMSO), and adding 1.1 μL of the dilutions. A control was provided by adding 1.1 μL of DMSO to the reaction system.
A representative compound of the compounds according to the invention was selected, and the IC50 value of this compound for the cyclin H-Cdk7 activity was determined.

A further experiment concerns the target T3, cyclin D2-Cdk4 (Homo sapiens, UniProt P11802).
T3 construct: made in house; host or cells: insect cell Sf9 (baculovirus)
The experiment is described as follows: Cdk4 inhibitory action: cyclin D2-Cdk4 kinase activity, 33P-ATP, RB peptide substrate. Conditions: cyclin D2-Cdk4, 50 μM ATP. It counts as biochemical.
Text: First, the cDNA of Cdk4, and the cDNA of a fusion protein of cyclin D2, an activating factor of Cdk4, and glutathione S-transferase, were integrated into a baculovirus expression vector to prepare a recombinant baculovirus. This was co-transfected into insect cell Sf9 to express an active complex of the cyclin D2/glutathione S-transferase fusion protein-Cdk4 at a high level. The cells were recovered and solubilized, then the active complex was adsorbed onto Glutathione Sepharose, and a cyclin D2-Cdk4 complex was recovered using Precision Protease and was purified by HPLC column chromatography [EMBO J., Vol. 15, 7060-7069 (1996)].
For the measurement of the activity of cyclin D2-Cdk4, a synthetic peptide (Arg-Pro-Pro-Thr-Leu-Ser-Pro-Ile-Pro-His-Ile-Pro-Arg) corresponding to amino acid residue No. 775-787 of RB protein was used as the substrate [EMBO J., Vol. 15, 7060-7069 (1996)].
as §1, with “and” for “and to”, “the composition of the reaction buffer (R buffer) was 20 mM Tris-hydrochloric acid buffer (pH 7.4)/10 mM magnesium chloride/4.5 mM 2-mercaptoethanol/1 mM ethylene glycol bis(β-aminoethyl ether)-N,N,N′,N′-tetraacetic acid (EGTA). To this reaction” for “the R”, “cyclin D2-Cdk4, 100” for “cyclin T1-Cdk9, 25”, “and 1” for “and 0.5”, “for 45” for “for 20”, “counter. The [γ-33P]-labeled ATP was purchased from Daiichi Pure Chemicals Co., Ltd.” for “counter.”
Addition of the test compound to the reaction system was carried out by first preparing a dilution series of solutions of the compound in dimethylsulfoxide (DMSO), and adding 1.1 μL of the dilutions. A control was provided by adding 1.1 μL of DMSO to the reaction system.
A representative compound of the compounds according to the invention was selected, and the IC50 value of this compound for the cyclin D2-Cdk4 activity was determined.

T2 sequence (P50613 whole entry): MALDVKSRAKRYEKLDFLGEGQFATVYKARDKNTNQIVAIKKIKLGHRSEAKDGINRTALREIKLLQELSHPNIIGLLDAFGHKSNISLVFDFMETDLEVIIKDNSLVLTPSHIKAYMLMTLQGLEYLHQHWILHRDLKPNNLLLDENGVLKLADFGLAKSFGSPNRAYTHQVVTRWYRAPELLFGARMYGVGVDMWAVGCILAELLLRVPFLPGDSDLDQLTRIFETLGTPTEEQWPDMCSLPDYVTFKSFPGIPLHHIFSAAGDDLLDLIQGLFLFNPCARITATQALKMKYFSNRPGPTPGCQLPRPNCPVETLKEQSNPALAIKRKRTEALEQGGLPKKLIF
T2 sequence (P51946 whole entry partner): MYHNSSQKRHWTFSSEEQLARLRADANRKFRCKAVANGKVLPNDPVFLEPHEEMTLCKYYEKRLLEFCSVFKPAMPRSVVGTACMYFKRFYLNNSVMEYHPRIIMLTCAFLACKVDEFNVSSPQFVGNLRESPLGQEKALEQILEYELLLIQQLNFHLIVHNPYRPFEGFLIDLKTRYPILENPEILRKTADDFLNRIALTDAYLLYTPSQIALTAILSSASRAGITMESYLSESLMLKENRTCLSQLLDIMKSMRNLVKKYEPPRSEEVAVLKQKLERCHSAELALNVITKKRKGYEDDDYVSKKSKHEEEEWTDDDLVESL
T1 sequence (P50750 whole entry): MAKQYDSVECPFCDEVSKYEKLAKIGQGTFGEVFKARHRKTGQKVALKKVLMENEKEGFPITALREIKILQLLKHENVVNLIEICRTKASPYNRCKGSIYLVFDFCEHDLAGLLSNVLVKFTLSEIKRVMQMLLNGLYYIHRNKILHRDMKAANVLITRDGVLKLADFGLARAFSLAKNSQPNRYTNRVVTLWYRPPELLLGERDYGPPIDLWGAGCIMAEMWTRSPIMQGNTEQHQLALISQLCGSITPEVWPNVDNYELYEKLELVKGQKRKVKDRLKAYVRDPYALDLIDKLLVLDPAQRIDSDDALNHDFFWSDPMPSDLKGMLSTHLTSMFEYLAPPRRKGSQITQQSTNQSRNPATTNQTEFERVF
T1 sequence (O60563 whole entry partner): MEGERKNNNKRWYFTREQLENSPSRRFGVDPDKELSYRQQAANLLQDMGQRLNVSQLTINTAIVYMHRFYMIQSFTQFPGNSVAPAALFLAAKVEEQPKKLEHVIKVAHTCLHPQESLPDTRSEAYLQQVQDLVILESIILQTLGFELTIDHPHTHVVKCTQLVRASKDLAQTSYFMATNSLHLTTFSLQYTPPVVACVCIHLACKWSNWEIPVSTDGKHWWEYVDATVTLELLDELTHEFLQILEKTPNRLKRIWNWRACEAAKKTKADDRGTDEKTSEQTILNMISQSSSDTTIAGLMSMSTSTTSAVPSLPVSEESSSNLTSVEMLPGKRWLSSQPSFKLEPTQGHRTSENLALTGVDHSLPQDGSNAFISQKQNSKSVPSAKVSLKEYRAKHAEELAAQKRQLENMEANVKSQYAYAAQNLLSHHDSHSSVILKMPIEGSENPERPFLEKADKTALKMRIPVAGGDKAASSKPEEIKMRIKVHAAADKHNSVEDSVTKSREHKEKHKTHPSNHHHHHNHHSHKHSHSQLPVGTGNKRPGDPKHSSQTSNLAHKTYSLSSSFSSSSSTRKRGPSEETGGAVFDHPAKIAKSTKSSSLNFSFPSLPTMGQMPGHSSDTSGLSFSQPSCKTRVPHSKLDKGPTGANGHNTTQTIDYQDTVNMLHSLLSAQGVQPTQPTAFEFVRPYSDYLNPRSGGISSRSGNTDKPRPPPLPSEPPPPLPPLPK
T3 sequence (P11802 whole entry): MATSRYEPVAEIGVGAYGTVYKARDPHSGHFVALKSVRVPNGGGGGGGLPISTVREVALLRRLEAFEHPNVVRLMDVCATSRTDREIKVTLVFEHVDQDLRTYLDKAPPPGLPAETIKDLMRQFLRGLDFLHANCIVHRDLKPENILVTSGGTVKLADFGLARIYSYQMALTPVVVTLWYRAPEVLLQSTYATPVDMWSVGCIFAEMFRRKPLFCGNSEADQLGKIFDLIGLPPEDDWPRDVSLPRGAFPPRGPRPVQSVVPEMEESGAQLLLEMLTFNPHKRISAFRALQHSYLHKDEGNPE
T3 sequence (P30279 whole entry partner): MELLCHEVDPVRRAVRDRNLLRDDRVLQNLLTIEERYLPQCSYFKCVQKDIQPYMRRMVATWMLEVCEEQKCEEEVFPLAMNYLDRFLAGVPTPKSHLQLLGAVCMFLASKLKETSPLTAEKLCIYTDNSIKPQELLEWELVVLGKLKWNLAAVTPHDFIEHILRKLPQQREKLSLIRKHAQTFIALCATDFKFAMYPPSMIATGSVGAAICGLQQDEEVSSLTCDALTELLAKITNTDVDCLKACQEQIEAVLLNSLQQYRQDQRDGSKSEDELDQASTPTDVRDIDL

Take `CCNCc1cnc(Nc2ncc(-c3cc(C)nc(NC4CCCCC4)n3)s2)cn1` [Example 52, 5-[2-(cyclohexylamino)-6-methyl-4-pyrimidinyl]-2-[5-(ethylamino)methyl-2-pyrazinyl]amino-1,3-thiazole]: the IC50 in the experiment with JURKAT is 160 nM; against cyclin T1-Cdk9, 330 nM; against cyclin H-Cdk7, 210 nM; at cyclin D2-Cdk4 it was 5.5 nM.
Regarding `CNCc1cnc(Nc2ncc(-c3cc(C)nc(Sc4ccccc4Cl)n3)s2)cn1` [Example 107], the IC50 in the experiment on JURKAT worked out at 63 nM; on cyclin T1-Cdk9, 250 nM; on cyclin H-Cdk7, 830 nM; against cyclin D2-Cdk4, 8.8 nM.
For `Cc1cc(-c2cnc(Nc3cnc(CN4CCC[C@H]4CO)cn3)s2)nc(Sc2ccccc2Cl)n1` [Example 110, (2S)-5-[2-(2-chlorophenylthio)-6-methyl-4-pyrimidinyl]-2-[5-(2-hydroxymethyl-1-pyrrolidinyl)methyl-2-pyrazinyl]amino-1,3-thiazole], in that order: 73 nM, 320 nM, 490 nM and 10 nM.
On to `CCNCc1cnc(Nc2ncc(-c3cc(C)nc(Sc4ccccc4Cl)n3)s2)cn1` [Example 105, 5-[2-(2-chlorophenylthio)-6-methyl-4-pyrimidinyl]-2-[5-(ethylamino)methyl-2-pyrazinyl]amino-1,3-thiazole], for which the IC50 against cyclin T1-Cdk9 turned out to be 180 nM; against cyclin H-Cdk7 it was 370 nM; against cyclin D2-Cdk4, 5.3 nM.
As to `Cc1cc(-c2cnc(Nc3cnc(CN(C)CCO)cn3)s2)nc(Sc2ccccc2Cl)n1` [Example 114, 5-[2-(2-chlorophenylthio)-6-methyl-4-pyrimidinyl]-2-{5-[(2-hydroxyethyl)methylamino]methyl-2-pyrazinyl}amino-1,3-thiazole], the IC50 in the experiment on JURKAT came out at 83 nM; against cyclin T1-Cdk9, 1600 nM; against cyclin H-Cdk7, 780 nM; against cyclin D2-Cdk4, 13 nM.
In the case of `Cc1cc(-c2cnc(Nc3cnc(CN4CC[C@@H](O)C4)cn3)s2)nc(Sc2ccccc2Cl)n1` [Example 118, (3R)-5-[2-(2-chlorophenylthio)-6-methyl-4-pyrimidinyl]-2-[5-(3-hydroxy-1-pyrrolidinyl)methyl-2-pyrazinyl]amino-1,3-thiazole], the IC50 in the experiment with JURKAT was 90 nM; against cyclin T1-Cdk9, 980 nM; on cyclin H-Cdk7, 990 nM; against cyclin D2-Cdk4, 20 nM.
Turning to `Cc1cc(-c2cnc(Nc3cnc(CNC(C)C)cn3)s2)nc(Sc2ccccc2Cl)n1` [Example 106, 5-[2-(2-chlorophenylthio)-6-methyl-4-pyrimidinyl]-2-[5-(isopropylamino)methyl-2-pyrazinyl]amino-1,3-thiazole], the IC50 worked out at 63 nM in the experiment with JURKAT, 310 nM against cyclin T1-Cdk9, 560 nM against cyclin H-Cdk7 and 8.4 nM against cyclin D2-Cdk4.
For the compound `Cc1cc(-c2cnc(Nc3cnc(CN4CCCC4)cn3)s2)nc(Sc2ccccc2Cl)n1` [Example 113, 5-[2-(2-chlorophenylthio)-6-methyl-4-pyrimidinyl]-2-[5-(1-pyrrolidinyl)methyl-2-pyrazinyl]amino-1,3-thiazole], the IC50 came out at 72 nM in the experiment with JURKAT, 880 nM against cyclin T1-Cdk9, 560 nM on cyclin H-Cdk7 and 13 nM against cyclin D2-Cdk4.
